According to US9879003B2, “Host targeted inhibitors of dengue virus and other viruses” (priority 2012, dated 2018):
pEC50: −log10 of the molar value. “Also recorded” adds a separate entry of the source. Where two headings read alike, the source gives them in different places.

Experiments:
[1] = test system: DENV2-Fluc(WT) replicon RNA; assay: DENV2-Fluc(WT) replicon translation, luciferase, Huh7 cells; type: cell-based, Dengue virus; details: 6 hours post-electroporation; QL compounds 2 μM, cycloheximide 30 μg/mL
[2] = test system: DENV2-Fluc (GDV) replicon RNA; assay: DENV2-Fluc(GDV) mutant replicon translation, luciferase, Huh7 cells; type: cell-based, Dengue virus; details: 6 hours post-electroporation; QL compounds 2 μM, cycloheximide 30 μg/mL
[3] = molecular target: DENV RNA-dependent polymerase (Dengue virus type 2, UniProt P14340); details: Wu et al. 2002; cited from earlier work
[4] = test system: DENV2 New Guinea C (DENV2-NGC); assay: Viral yield reduction assay, DENV2-NGC in Huh7 cells, titration by focus forming assay (FFA); type: cell-based, Dengue virus
DENV2 virus [5] = assay: QL-XII-47 biotin test, DENV2 in Huh7 cells, titration in FFU/ml; type: cell-based, Dengue virus; details: treated for 24 or 48 h
Huh7 cells = assay: CellTiter-Glo luminescent cell viability assay (cytotoxicity); type: cell-based; details: 20 μM, the highest concentration tested
Method: As a positive control for cytotoxicity, some wells were supplemented with 0.1% saponin. The plates were incubated for 24 hours at 37° C., and the cell cytotoxicity was measured following the instructions of the CellTiter-Glo Luminescent cell viability assay (Promega G7570).

Kunjin virus = Kunjin virus yield reduction in Huh7 cells, plaque assay in BHK21 cells; type: cell-based; details: 2 μM
[6] = test system: recombinant viral particles (RVP) with dengue structural proteins and West Nile virus reporter RNA; assay: Single-cycle reporter viral particle (RVP) assay, Renilla luciferase, Huh7 cells; type: cell-based; details: entry and translation of subgenomic replicon RNA
DENV2 replicon = type: cell-based, Dengue virus; details: 2 μM added at 24 hours, read at 72 hours post-electroporation
[7] = test system: DENV2 virus-like particles (VLPs); assay: DENV virus-like particle (VLP) expression and secretion, Huh7 cells, Western blot; type: cell-based, Dengue virus; details: 3 μM, supernatants 24 hours post-treatment
Method: The plasmid used for virus-like particles (VLP) production was provided by Stephen Harrison. Briefly, the codon optimized sequence of DENV2-FGA/02 prM-E (Wang et al., PLoS ONE (2009) 4:e8325) was introduced in the pCDNA3.1 vector. To produce VLPs, Huh7 cells were transfected with pCDNA3.1-D2.VLP using Lipofectamine 2000 (Life Technologies 11668-019) according to the manufacturer's instructions. […] The supernatants were collected at 24 hours post-treatment and precipitated for 3 hours at 4° C. by the addition of 0.075% of PEG 8000. The VLPs were pelleted by centrifugation at 10,000 g for 15 min at 4° C. The pellet was suspended in 200 μl of 1×TNE (10 mM Tris-HCl pH 7.5, 2.5 mM EDTA, 50 mM NaCl), loaded over a sucrose cushion (800 μl of 12.5% sucrose in 1×TNE), and centrifuged at 100,000 g for 2 h at 4° C. The supernatants were discarded, and the purified VLPs were suspended in 50 μl of 1×TNE. 25 μl of purified VLPs were analyzed for DENV2 E protein expression by Western blotting using 4G2 antibody. An equal amount of purified VLPs was loaded on a SDS-PAGE and submitted to Coomassie staining to control for equal loading of the VLPs-enriched supernatants. Steady state expression of DENV2 E protein in the cell lysates was analyzed by Western blotting using 4G2 antibody.

[8] = test system: encephalomyocarditis virus (EMCV) IRES; type: cell-based
VSV = type: cell-based, vesicular stomatitis virus
[9] = test system: VSV pseudotyped with rabies virus glycoprotein (RABV); type: cell-based, vesicular stomatitis virus
[10] = test system: VSV pseudotyped with Ebola glycoprotein (EboV); type: cell-based, vesicular stomatitis virus
[11] = test system: human cytomegalovirus (HCMV); type: cell-based
[12] = test system: herpes simplex virus 1 (HSV-1); type: cell-based
poliovirus = type: cell-based
[13] = test system: Japanese Encephalitis virus (JEV); type: cell-based
Junin virus = type: cell-based
influenza virus = type: cell-based
vaccinia virus = type: cell-based
[14] = test system: Ebola glycoprotein (EBOV); type: cell-based, Ebola virus
Marburg virus (MARV) = type: cell-based
Junin virus (JUNV) = type: cell-based
Lassa fever virus (LASV) = type: cell-based
[15] = test system: Venezuelan equine encephalitis virus (VEEV); type: cell-based
[16] = test system: Rift Valley fever virus (RVFV); type: cell-based
[17] = test system: vesicular stomatitis virus (VSV); type: cell-based
poliovirus Type 1 (PV1) = type: cell-based
DENV2 virus [18] = assay: DENV2 viral production time course in Huh7 cells (FFU/ml, RTqPCR, Western blot); type: cell-based, Dengue virus; details: 4 μM
DENV1 WP74 = assay: Yield reduction assay, DENV1-WP74 in Huh7 cells, FFA in Vero cells; details: Huh7 MOI 1, FFA in Vero cells
DENV3 THD3 = assay: Yield reduction assay, DENV3-THD3 in Huh7 cells, FFA in Vero cells; details: Huh7 MOI 1, FFA in Vero cells
DENV4 TVP360 = assay: Yield reduction assay, DENV4-TVP360 in Huh7 cells, FFA in Vero cells; details: Huh7 MOI 1, FFA in Vero cells
DENV2-NGC genomic RNA = assay: Time course of intracellular DENV genomic RNA by qRT-PCR and in situ hybridization; details: 2 μM, MOI 1, normalized to GAPDH

In the case of `C[C@@H]1C[C@@H]([C@H](O)CC2CC(=O)NC(=O)C2)C(=O)[C@@H](C)C1` [CHX, cycloheximide, reference compound], the “luciferase activity (translation of input RNA)” value (shortened to “luciferase activity”) [1] was “Reduced luciferase activity” and the “luciferase activity” value [2] was “Reduced luciferase activity”.

In the case of `C[C@@]1(O)[C@H](O)[C@@H](CO)O[C@H]1n1ccc2c(N)ncnc21` [Compound 7-DMA], the pEC50 [3] is listed as 4.82.

For `C=CC(=O)N1CCC[C@@H](n2nc(-c3ccc(Oc4ccccc4)cc3)c3c(N)ncnc32)C1` [PCI-32765, reference compound], the “effect on DENV yield” value ([4]; added 1 hour post-infection, MOI 1, FFA at 24 h post-infection) was “not inhibited; also recorded: no effect”.

For `CN(C/C=C/C(=O)N1CCc2ccc(-n3c(=O)ccc4cnc5ccc(-c6cnn(C)c6)cc5c43)cc21)CCNC(=O)NCCOCCOCCOCCNC(=O)CCCC1SCC2NC(=O)NC21` (stereo not drawn) [QL-XII-47-biotin], the “inhibitory activity against dengue virus” value (DENV2 virus [5]) was “significantly reduced inhibitory activity”.

In the case of `C=CC(=O)N1CCc2ccc(-n3c(=O)ccc4cnc5ccc(-c6cnn(C)c6)cc5c43)cc21` [QL-XII-47], the activity against strain ([4]; DENV2 NGC, Huh7 MOI 1, FFA in Vero cells) was “potent activity”, the EC90 ([4]; Dengue virus, DENV2, Huh-7) was 0.4 µM and the “decrease in DENV2 New Guinea C (DENV2-NGC) yield / drop in viral titer” value ([4]; at single-digit micromolar concentrations) was over 3 log10 unit. For the same compound, the “inhibition of DENV after pretreatment of cells” value ([4]; cells pretreated for 6 hours and washed prior to infection) was “potent inhibition”, the “time of addition giving maximal anti-DENV effect” value ([4]; time-of-addition experiment) was 0-3 hours post-infection and the cytotoxicity (Huh7 cells) was “no cytotoxicity; also recorded: not observed”. For the same compound, the “reduction in Kunjin virus yield” value (Kunjin virus) was “greater than 10 fold”, the “inhibition in single-cycle reporter virus assay” value [6] was “potent inhibitory activity” and the “activity on electroporated subgenomic reporter replicon” value (DENV2 replicon) was “does not have activity”. For the same compound, the “yield of virus-like particles (VLPs)” value [7] was “did not inhibit”, the “luciferase activity” value [1] was “Reduced luciferase activity” and the “luciferase activity” value [2] was “Reduced luciferase activity”. The “EMCV IRES-dependent translation” value [8] was “reduces translation; also recorded: inhibited”, the inhibition of infection (VSV) was “inhibits infection” and the inhibition of infection [9] was “inhibits infection”. The inhibition of infection [10] was “inhibits infection”, the “inhibition of reporter HCMV infection” value [11] was “inhibits” and the “inhibition of infection and plaque formation” value [12] was “inhibits”. For the same compound, the plaques detected [12] was “no plaques were detected”, the “inhibition of infection and viral gene expression” value (poliovirus) was “inhibits” and the “inhibition of cytopathic effects” value [13] was “modest inhibitor”. For the same compound, the “inhibition of cytopathic effects” value (Junin virus) was “modest inhibitor”, the activity against virus (influenza virus) was “no activity” and the activity against virus (vaccinia virus) was “no activity”. The inhibitory activity [14] was “inhibitory activity”, the inhibitory activity (Marburg virus (MARV)) was “inhibitory activity” and the inhibitory activity (Junin virus (JUNV)) was “inhibitory activity”. For the same compound, the inhibitory activity (Lassa fever virus (LASV)) was “inhibitory activity”, the inhibitory activity [15] was “inhibitory activity” and the inhibitory activity [16] was “inhibitory activity”. The “inhibition of VSV” value [17] was “inhibited”, the “inhibition of PV1” value (poliovirus Type 1 (PV1)) was “inhibited” and the “expression of DENV proteins NS3 and core (Western blot)” value (DENV2 virus [18]) was “reduced steady-state expression”. The “DENV2 viral production (FFU/ml, viral count)” value (DENV2 virus [18]; after about 12 hours of infection) was “inhibited”, the cytotoxicity (Vero) was “not observed” and the cytotoxicity (BHK21) was “not observed”. The cytotoxicity (3T3) was “not observed”, the cytotoxicity (Hela) was “single-digit micromolar cytotoxicity” and the cytotoxicity 293 was “single-digit micromolar cytotoxicity”. For the same compound, the activity against strain (DENV1 WP74) was “potent activity”, the activity against strain (DENV3 THD3) was “potent activity” and the activity against strain (DENV4 TVP360) was “potent activity”. For the same compound, the “DENV genomic RNA copy number over time” value (DENV2-NGC genomic RNA) was “relatively unchanged copy number”.

In the case of `C=CC(=O)Nc1cc(-n2c(=O)ccc3cnc4ccc(-c5cnn(C)c5)cc4c32)ccc1C` [QL-XII-56], the “luciferase activity” value [1] was “Reduced luciferase activity”, the “luciferase activity” value [2] was “Reduced luciferase activity” and the “EMCV IRES-dependent translation” value [8] was “inhibited”. The inhibitory activity [14] was “inhibitory activity”, the inhibitory activity (Marburg virus (MARV)) was “inhibitory activity” and the inhibitory activity (Junin virus (JUNV)) was “inhibitory activity”. The inhibitory activity (Lassa fever virus (LASV)) was “inhibitory activity”, the inhibitory activity [15] was “inhibitory activity” and the inhibitory activity [16] was “inhibitory activity”. The “inhibition of VSV” value [17] was “inhibited” and the “inhibition of PV1” value (poliovirus Type 1 (PV1)) was “inhibited”.

For `Nc1nc2c(ncn2COCCO)c(=O)[nH]1` [acyclovir, reference compound], the plaques detected ([12]; 8 μM) was “no plaques were detected”.
